Several values for one entry are separate records, joined by “and”; a condition that tells them apart may be missing. Equal values may be shown once.
Experiments:
Mus musculus [1] = experiment: Analgesic activity in albino mouse assessed protection against acetic acid-induced abdominal writhing at 10 mg/kg, ip pretreated for 1 hr followed by acetic acid challenge and measured starting 5 mins post acetic acid challenge for 10 mins relative to indomethacin; type: functional; details: time 75 min, 1.25 h
Rattus norvegicus [2] = experiment: Antiinflammatory activity in Wistar rat model of carrageenan-induced paw edema assessed as reduction in thickness of paw edema at 10 mg/kg, ip pretreated for 1 hr followed by carrageenan challenge and measured after 2 hrs (reference value: 2.06 +/-0.09 mm); type: functional; details: time 3 hrs
Mus musculus [3] = experiment: Analgesic activity in albino mouse assessed as protection at 10 mg/kg, ip measured after 120 mins by hot plate test (reference value: 0 %); type: functional; details: 2 h
Rattus norvegicus [4] = experiment: Anti-inflammatory activity in Wistar rat assessed as inhibition of carrageenan-induced paw edema at 10 mg/kg, ip pretreated for 1 hr followed by carrageenan challenge and measured after 3 hr relative to control (reference value: 0.00 +/-0.1 %); type: functional; details: time 4 hrs
[5] = Toxicity in albino mouse assessed as induction of toxic symptoms at 50 to 100 mg/kg, ip measured after 24 hrs; type: organism-based; details: in vivo, dose 50-100 mg/kg
Peritoneal macrophage [6] = experiment: Antiinflammatory activity in […] mouse Peritoneal macrophages assessed as reduction in LPS-induced NO production by measuring reduction in stimulation index at 10 uM preincubated for 1 hr followed by LPS stimulation measured after 24 hrs by Griess method (reference value: 27.31 +/- 2.56 uM); type: functional; details: time 25 hrs
Streptococcus pyogenes = experiment: Antibacterial activity against Streptococcus pyogenes ATCC 19615 incubated for 18 hrs by agar dilution method; type: functional
Rattus norvegicus [7] = experiment: Anti-inflammatory activity in Wistar rat assessed as inhibition of carrageenan-induced paw edema at 10 mg/kg, ip pretreated for 1 hr followed by carrageenan challenge and measured after 24 hr relative to control (reference value: 0.00 +/-0.3 %); type: functional; details: time 25 hrs
Rattus norvegicus [8] = experiment: Anti-inflammatory activity in Wistar rat assessed as inhibition of carrageenan-induced paw edema at 10 mg/kg, ip pretreated for 1 hr followed by carrageenan challenge and measured after 4 hr relative to control (reference value: 0.00 +/-0.4 %); type: functional; details: time 5 hrs
MCF7 = experiment: Antiproliferative activity against human MCF7 cells assessed as inhibition of cell growth after 72 hrs by MTT assay; type: functional, cell-based; details: MCF7, 72 h
Mus musculus [9] = experiment: Analgesic activity in albino mouse assessed as forepaw licking/jumping latency time at 10 mg/kg, ip measured after 60 mins by hot plate test (reference value: 3.42 +/- 0.03 sec); type: functional; details: 1 h
[10] = Ulcerogenic activity in fasted albino mouse assessed as average severity of ulcers in gastric mucosa at 10 mg/kg, po for 3 days (reference value: 0); type: toxicity, organism-based; details: in vivo, 72 h, time 3 day
Mus musculus [11] = experiment: Analgesic activity in albino mouse assessed as forepaw licking/jumping latency time at 10 mg/kg, ip measured after 90 mins by hot plate test (reference value: 2.72 +/- 0.01 sec); type: functional; details: 1.5 h
A549 = experiment: Antiproliferative activity against human A549 cells assessed as inhibition of cell growth after 72 hrs by MTT assay; type: functional, cell-based; details: A549, 72 h
Rattus norvegicus [12] = experiment: Anti-inflammatory activity in Wistar rat assessed as inhibition of carrageenan-induced paw edema at 10 mg/kg, ip pretreated for 1 hr followed by carrageenan challenge and measured after 4 hr relative to indomethacin; type: functional; details: time 5 hrs
Mus musculus [13] = experiment: Analgesic activity in albino mouse assessed protection against acetic acid-induced abdominal writhing at 10 mg/kg, ip pretreated for 1 hr followed by acetic acid challenge and measured starting 5 mins post acetic acid challenge for 10 mins relative to control (reference value: 0 %); type: functional; details: time 75 min, 1.25 h
PC-3 = experiment: Antiproliferative activity against human PC3 cells assessed as inhibition of cell growth after 72 hrs by MTT assay; type: functional, cell-based; details: PC-3, 72 h
Rattus norvegicus [14] = experiment: Antiinflammatory activity in Wistar rat model of carrageenan-induced paw edema assessed as reduction in thickness of paw edema at 10 mg/kg, ip pretreated for 1 hr followed by carrageenan challenge and measured after 24 hrs (reference value: 0.83 +/-0.08 mm); type: functional; details: time 25 hrs
Pseudomonas aeruginosa = experiment: Antibacterial activity against Pseudomonas aeruginosa ATCC 27853 incubated for 18 hrs by agar dilution assay; type: functional
[15] = Ulcerogenic activity in fasted albino mouse assessed as ulcer index in gastric mucosa at 10 mg/kg, po for 3 days (reference value: 0); type: toxicity, organism-based; details: in vivo, 72 h, time 3 day
Rattus norvegicus [16] = experiment: Antiinflammatory activity in Wistar rat model of carrageenan-induced paw edema assessed as reduction in thickness of paw edema at 10 mg/kg, ip pretreated for 1 hr followed by carrageenan challenge and measured after 3 hrs (reference value: 1.79 +/-0.07 mm); type: functional; details: time 4 hrs
Mus musculus [17] = experiment: Analgesic activity in albino mouse assessed as protection at 10 mg/kg, ip measured after 30 mins by hot plate test (reference value: 0 %); type: functional; details: 0.5 h
Mus musculus [18] = experiment: Analgesic activity in albino mouse assessed as protection at 10 mg/kg, ip measured after 90 mins by hot plate test (reference value: 0 %); type: functional; details: 1.5 h
[19] = Ulcerogenic activity in fasted albino mouse assessed as average number of ulcers in gastric mucosa at 10 mg/kg, po for 3 days (reference value: 0); type: toxicity, organism-based; details: in vivo, 72 h, time 3 day
Rattus norvegicus [20] = experiment: Antiinflammatory activity in Wistar rat model of carrageenan-induced paw edema assessed as reduction in thickness of paw edema at 10 mg/kg, ip pretreated for 1 hr followed by carrageenan challenge and measured after 4 hrs (reference value: 1.40 +/-0.10 mm); type: functional; details: time 5 hrs
Rattus norvegicus [21] = experiment: Anti-inflammatory activity in Wistar rat assessed as inhibition of carrageenan-induced paw edema at 10 mg/kg, ip pretreated for 1 hr followed by carrageenan challenge and measured after 1 hr relative to control (reference value: 0.00 +/-0.02 %); type: functional; details: time 2 hrs
Mus musculus [22] = experiment: Analgesic activity in albino mouse assessed as forepaw licking/jumping latency time at 10 mg/kg, ip measured after 30 mins by hot plate test (reference value: 5.02 +/- 0.09 sec); type: functional; details: 0.5 h
Mus musculus [23] = experiment: Analgesic activity in albino mouse assessed as forepaw licking/jumping latency time at 10 mg/kg, ip measured after 120 mins by hot plate test (reference value: 2.62 +/- 0.06 sec); type: functional; details: 2 h
Mus musculus [24] = experiment: Analgesic activity in albino mouse assessed as protection at 10 mg/kg, ip measured after 60 mins by hot plate test (reference value: 0 %); type: functional; details: 1 h
Candida albicans = experiment: Antifungal activity against Candida albicans incubated for 18 to 24 hrs by CLSI method; type: functional; details: time 18-24 hrs
Staphylococcus aureus = experiment: Antibacterial activity against Staphylococcus aureus ATCC 25923 incubated for 18 hrs by agar dilution method; type: functional
Mus musculus [25] = experiment: Analgesic activity in albino mouse assessed as protection at 10 mg/kg, ip measured after 120 mins by hot plate test relative to indomethacin; type: functional; details: 2 h
Rattus norvegicus [26] = experiment: Antiinflammatory activity in Wistar rat model of carrageenan-induced paw edema assessed as reduction in thickness of paw edema at 10 mg/kg, ip pretreated for 1 hr followed by carrageenan challenge and measured after 1 hr (reference value: 2.41 +/-0.05 mm); type: functional; details: time 1 hr after carrageenan
Salmonella typhimurium = experiment: Antibacterial activity against Salmonella typhimurium ATCC 19430 incubated for 18 hrs by agar dilution assay; type: functional, Salmonella enterica subsp. enterica serovar Typhimurium; details: Salmonella enterica
Mus musculus [27] = experiment: Analgesic activity in albino mouse assessed reduction in acetic acid-induced abdominal writhing by measuring writing reflex at 10 mg/kg, ip pretreated for 1 hr followed by acetic acid challenge and measured starting 5 mins post acetic acid challenge for 10 mins (reference value: 42.4 +/- 1.02); type: functional; details: time 75 min, 1.25 h
Rattus norvegicus [28] = experiment: Anti-inflammatory activity in Wistar rat assessed as inhibition of carrageenan-induced paw edema at 10 mg/kg, ip pretreated for 1 hr followed by carrageenan challenge and measured after 2 hr relative to control (reference value: 0.00 +/-0.03 %); type: functional; details: time 3 hrs
Splenocyte [29] = experiment: Immunomodulatory activity in Swiss albino mouse splenocytes assessed as cell viability at 10 uM by measuring stimulation index incubated for 72 hrs in presence of mitogenic stimulus phytohaemagglutinin by MTT assay (reference value: 1.00 +/- 0.24); type: functional
[30] = Ulcerogenic activity in fasted albino mouse assessed as incidence of gastric ulceration at 10 mg/kg, po for 3 days (reference value: 0 %); type: toxicity, organism-based; details: in vivo, 72 h, time 3 day
Peritoneal macrophage [31] = experiment: Antiinflammatory activity in […] mouse Peritoneal macrophages assessed as inhibition of LPS-induced NO production at 10 uM preincubated for 1 hr followed by LPS stimulation measured after 24 hrs by Griess method relative to control (reference value: 0.0 %); type: functional; parameters: scale not given: the % may be the effect or the level left; details: time 25 hrs
Splenocyte [32] = experiment: Immunomodulatory activity in Swiss albino mouse splenocytes assessed as cell viability at 10 uM by measuring inhibition of stimulation index incubated for 72 hrs in presence of mitogenic stimulus phytohaemagglutinin by MTT assay relative to indomethacin; type: functional; details: read-out: Activity

Q: For `COc1cc(/C=C/C(=O)/C=C(O)/C=C/c2ccc(OC(=O)[C@@H](N)CCSC)c(OC)c2)ccc1OC(=O)[C@@H](N)CCSC.Cl.Cl`, which Activity (Mus musculus [1]) is on record?
A: 58.1%

Q: And the Activity (Rattus norvegicus [2])?
A: 0.62 mm

Q: What about the Activity (Mus musculus [3]) of the same compound?
A: 63.4%

Q: And the inhibition in vivo at 10 mg/kg (Rattus norvegicus [4])?
A: 73%

Q: What about the Activity [5] of the same compound?
A: Non-Toxic

Q: And the Activity (Peritoneal macrophage [6])?
A: 16.95 µM

Q: And the MIC (Streptococcus pyogenes)?
A: 0.5 µg/mL and 0.711 µM

Q: What about the inhibition in vivo at 10 mg/kg (Rattus norvegicus [7]) of the same compound?
A: 36%

Q: What about the inhibition in vivo at 10 mg/kg (Rattus norvegicus [8]) of the same compound?
A: 97%

Q: What about the IC50 (MCF7) of the same compound?
A: 11.3 µM

Q: And the Time (Mus musculus [9])?
A: 5.02 s

Q: What about the Activity [10] of the same compound?
A: 0

Q: And the Time (Mus musculus [11])?
A: 4.98 s

Q: What about the IC50 (A549) of the same compound?
A: 32.8 µM

Q: What about the inhibition in vivo at 10 mg/kg (Rattus norvegicus [12]) of the same compound?
A: 111%

Q: What about the Activity (Mus musculus [13]) of the same compound?
A: 35.8%

Q: And the IC50 (PC-3)?
A: 42.6 µM

Q: What about the Activity (Rattus norvegicus [14]) of the same compound?
A: 0.53 mm

Q: What about the MIC (Pseudomonas aeruginosa) of the same compound?
A: 0.5 µg/mL and 0.711 µM

Q: What about the UI [15] of the same compound?
A: 0

Q: And the Activity (Rattus norvegicus [16])?
A: 0.49 mm

Q: What about the Activity (Mus musculus [17]) of the same compound?
A: 5.2%

Q: What about the Activity (Mus musculus [18]) of the same compound?
A: 83.1%

Q: What about the Activity [19] of the same compound?
A: 0

Q: And the Activity (Rattus norvegicus [20])?
A: 0.04 mm

Q: And the inhibition in vivo at 10 mg/kg (Rattus norvegicus [21])?
A: 64%

Q: What about the Time (Mus musculus [22]) of the same compound?
A: 5.28 s

Q: What about the Time (Mus musculus [23]) of the same compound?
A: 4.28 s

Q: And the Activity (Mus musculus [24])?
A: 46.8%

Q: What about the MIC (Candida albicans) of the same compound?
A: 0.5 µg/mL and 0.711 µM

Q: What about the MIC (Staphylococcus aureus) of the same compound?
A: 0.25 µg/mL and 0.355 µM

Q: What about the Activity (Mus musculus [25]) of the same compound?
A: 151%

Q: What about the Activity (Rattus norvegicus [26]) of the same compound?
A: 0.86 mm

Q: And the MIC (Salmonella typhimurium)?
A: 0.125 µg/mL and 0.178 µM

Q: And the Activity (Mus musculus [27])?
A: 27.2

Q: What about the inhibition in vivo at 10 mg/kg (Rattus norvegicus [28]) of the same compound?
A: 70%

Q: What about the Activity_index (Splenocyte [29]) of the same compound?
A: 1.49

Q: And the Activity [30]?
A: 0%

Q: And the Activity (Peritoneal macrophage [31])?
A: 37.94%

Q: And the viability at 10 µM (Splenocyte [32])?
A: 81.3%

— ChEMBL document CHEMBL4765295, “Synthesis, pharmacological profile and 2D-QSAR studies of curcumin-amino acid conjugates as potential drug candidates” (Eur J Med Chem, 2020)
